Experimental data published in US10406135B2, “Compositions containing isosorbide monoester and alcohols that contain at least one aromatic group” (Clariant International Ltd., priority 2011, dated 2019).
Like-named read-outs stand apart in the source and are kept apart here. Blank lines part the entries; values can stand above or below the compound they belong to.

How the values were obtained:
[1] = test system: bacteria, fungi and yeasts; conditions: general statement, no test described, cited from earlier work
Fusarium solani = experiment: Antimicrobial efficacy, minimum inhibitory concentration (MIC) in agar; assay type: cell-based; conditions: Sabouraud 4% dextrose agar pH 5.6, read-out: MIC of isosorbide
Experimental: (§1) Below, the antimicrobial efficacy of a composition according to the invention consisting of 50% by weight of isosorbide caprylate 1 and 50% by weight of phenoxyethanol against bacteria, fungi and yeasts is examined (hereinbelow, the composition is referred to as “composition A”). For the tests with bacteria, composition A was diluted with butyl polyglycol and then, at 50° C., added to liquid CASO agar (casein-peptone agar) buffered to pH 7 (+/−0.2) in various concentrations (hereinbelow referred to as compositions B1, B2, etc.). For the tests with fungi and yeasts, composition A was diluted with butyl polyglycol and then added to liquid Sabouraud 4% dextrose agar buffered to pH 5.6 (+/−0.2) in various concentrations (hereinbelow referred to as compositions PH1, PH2, etc.). The compositions B1, B2, etc. and PH1, PH2 etc. were each poured into Petri dishes and each inoculated with identical amounts of bacteria, fungi and yeasts. The minimum inhibitory concentration (MIC) is the concentration at which inhibition of the growth of the bacteria, fungi and yeasts in the compositions B1, B2, etc. and PH1, PH2, etc. occurs.
(§2) The minimum inhibitory concentrations for the pure substances isosorbide caprylate 1 and phenoxyethanol were determined analogously. […]
(§3) The values determined for the minimum inhibitory concentrations “QA” and “QB”, stated in Table 1 below, have already been corrected for the dilution effect of the butyl polyglycol. […]
(§4) Analogously to the determination of the antimicrobial activity according to the above example B), the antimicrobial activity of a mixture comprising, firstly, 89.6% by weight of isosorbide dicaprylate and 9.4% by weight of isosorbide monocaprylate (remainder: 1% by weight) (hereinbelow referred to as “isosorbide dicaprylate”) and, secondly, pure isosorbide was determined in further test series.

Proteus vulgaris = experiment: as above; assay type: cell-based; conditions: CASO agar pH 7, read-out: MIC of isosorbide
Experimental: as §1, §2, §3, §4

Klebsiella pneumoniae = experiment: as above; assay type: cell-based; conditions: CASO agar pH 7, read-out: MIC of isosorbide
Experimental: as §1, §2, §3, §4

Penicillium funicolosium = experiment: as above; assay type: cell-based; conditions: Sabouraud 4% dextrose agar pH 5.6, read-out: MIC of isosorbide
Experimental: as §1, §2, §3, §4

Citrobacter freundii = experiment: as above; assay type: cell-based; conditions: CASO agar pH 7, read-out: MIC of isosorbide
Experimental: as §1, §2, §3, §4

Enterobacter aerogenes = experiment: as above; assay type: cell-based; conditions: Klebsiella aerogenes, CASO agar pH 7, read-out: MIC of isosorbide
Experimental: as §1, §2, §3, §4

Penicillium minioluteum = experiment: as above; assay type: cell-based; conditions: Talaromyces minioluteus, Sabouraud 4% dextrose agar pH 5.6, read-out: MIC of isosorbide
Experimental: as §1, §2, §3, §4

Pseudomonas aeruginosa = experiment: as above; assay type: cell-based; conditions: CASO agar pH 7, read-out: MIC of isosorbide
Experimental: as §1, §2, §3, §4

Candida albicans = experiment: as above; assay type: cell-based; conditions: Sabouraud 4% dextrose agar pH 5.6, read-out: MIC of isosorbide
Experimental: as §1, §2, §3, §4

Aspergillus brasiliensis = experiment: as above; assay type: cell-based; conditions: Sabouraud 4% dextrose agar pH 5.6, read-out: MIC of isosorbide
Experimental: as §1, §2, §3, §4

Aspergillus terreus = experiment: as above; assay type: cell-based; conditions: Sabouraud 4% dextrose agar pH 5.6, read-out: MIC of isosorbide
Experimental: as §1, §2, §3, §4

Escherichia coli = experiment: as above; assay type: cell-based; conditions: CASO agar pH 7, read-out: MIC of isosorbide
Experimental: as §1, §2, §3, §4

Pseudomonas oleovorans = experiment: as above; assay type: cell-based; conditions: Ectopseudomonas oleovorans, CASO agar pH 7, read-out: MIC of isosorbide
Experimental: (§5) Below, the antimicrobial efficacy of a composition according to the invention consisting of 50% by weight of isosorbide caprylate 1 and 50% by weight of phenoxyethanol against bacteria, fungi and yeasts is examined (hereinbelow, the composition is referred to as “composition A”). For the tests with bacteria, composition A was diluted with butyl polyglycol and then, at 50° C., added to liquid CASO agar (casein-peptone agar) buffered to pH 7 (+/−0.2) in various concentrations (hereinbelow referred to as compositions B1, B2, etc.). […]
(§6) The minimum inhibitory concentrations for the pure substances isosorbide caprylate 1 and phenoxyethanol were determined analogously.
(§7) The values determined for the minimum inhibitory concentrations “MIC mixture”, stated in Table 1 below, are based on the concentrations of composition A.
as §3, §4

Staphylococcus aureus = experiment: as above; assay type: cell-based; conditions: CASO agar pH 7, read-out: MIC of isosorbide
Experimental: as §5, §6, §7, §3, §4

[2] = test system: bacteria, fungi and yeasts; experiment: Antimicrobial efficacy, summary statements over the organisms tested; assay type: cell-based
Experimental: Below, the antimicrobial efficacy of a composition according to the invention consisting of 50% by weight of isosorbide caprylate 1 and 50% by weight of phenoxyethanol against bacteria, fungi and yeasts is examined (hereinbelow, the composition is referred to as “composition A”). For the tests with bacteria, composition A was diluted with butyl polyglycol and then, at 50° C., added to liquid CASO agar (casein-peptone agar) buffered to pH 7 (+/−0.2) in various concentrations (hereinbelow referred to as compositions B1, B2, etc.). For the tests with fungi and yeasts, composition A was diluted with butyl polyglycol and then added to liquid Sabouraud 4% dextrose agar buffered to pH 5.6 (+/−0.2) in various concentrations (hereinbelow referred to as compositions PH1, PH2, etc.). […]
as §2, §4

Compound: CCCCCCCC(=O)O [caprylic acid]
antimicrobial activity (in words) ([1]; at a pH of 6 or above): no antimicrobial activity
antimicrobial activity (in words) [1]: antimicrobially effective

MIC (Fusarium solani): 10000 µg/mL
MIC (Proteus vulgaris): 10000 µg/mL
MIC (Klebsiella pneumoniae): 10000 µg/mL
MIC (Penicillium funicolosium): 10000 µg/mL
MIC (Citrobacter freundii): 10000 µg/mL
MIC (Enterobacter aerogenes): 10000 µg/mL
MIC (Penicillium minioluteum): 10000 µg/mL
MIC (Pseudomonas aeruginosa): 10000 µg/mL
MIC (Candida albicans): 10000 µg/mL
MIC (Aspergillus brasiliensis): 10000 µg/mL
MIC (Aspergillus terreus): 10000 µg/mL
MIC (Escherichia coli): 10000 µg/mL
MIC (Pseudomonas oleovorans): 10000 µg/mL
MIC (Staphylococcus aureus): 10000 µg/mL
Compound: O[C@@H]1CO[C@H]2[C@@H]1OC[C@@H]2O [isosorbide]
antimicrobial activity (in words) ([2]; summary of the MICs of Table 2): neither isosorbide nor isosorbide dicaprylate are antimicrobially active

Compound: isosorbide monocaprylate
antimicrobial activity (in words) ([2]; concluded from Tables 1 and 2, not tested as pure compound): significant antimicrobial activity
